{"source": "patent US6897348B2", "about": "“Bandage, methods of producing and using same” (Kimberly Clark Worldwide, Inc, priority 2001, dated 2005)", "key": {"[1]": {"tested_on": "full thickness (excisional) wounds on dorsal skin", "test": "Accelerated wound healing study, full thickness acute wound model (re-epithelialization, epithelial thickness)", "assay_type": "in vivo", "conditions": "rat full thickness wound", "method": "Following the assessment of hemostatic agents, a study was conducted using the accelerated wound healing study protocol which follows. In the examples of the study, a series of comparative control bandage substrates were evaluated as to the speed at which wounds covered/dressed with such bandages healed. In particular, the rates of re-epithelialization were measured for wounds dressed by such control dressing materials. Additionally, the rates at which wounds heal that have been treated with a series of test compounds in accordance with the present invention, were also measured and compared with the controls.\nFor the purposes of the examples, the test compounds consisted of chitosan, Niacinamide ascorbate (hereinafter NA) prepared by the method which follows; and chitosan niacinamide ascorbate salt (hereinafter CNA, prepared by the method which follows), 2-ply surgical gauze, and Comfeel® Plus Clear Dressing (Colorplast).\nWounds were treated with test and control articles on the day of wounding (day 0) on 2, 4, 6, 8, 10, 12, and 14 days after the injury. CNA (freeze dried) was cut to the approximate size of the wound and applied over the wound. Chitosan (powder) and NA (powder) were applied over the wound to the depth that covered the underlying tissue. The gauze was cut to extend approximately 0.5 cm beyond the margins of the wound. The Comfeel® Plus dressing was cut to the approximate size of the wound and applied over the wound and also used to cover all test and control articles over the entire dorsal surface of the animal. […]\nFor the study, twenty four albino rats (12M/12F), each weighing between 250-300 g, were anesthetized (90 mg/Kg Ketamine HCL and 10 mg/Kg Xylazine) and the entire dorsal region of each rat was shaved. […] The epithelial thickness of the three sections of the wound (margin, center and midpoint between these two) was measured by morphometric analysis of the microscopic image using Image-Pro Plus software, Version 3.0 (Media Cybernetics). The average thickness of these sites within the wound was determined for wound healing of the entire site."}, "human blood": {"tested_on": "human blood", "test": "Lee and White Coagulation Assay in Human Blood", "conditions": "samples in dried form (5 mg/ml), triplicate", "method": "For the purposes of this application, and as a preliminary matter, a series of hemostatic agents were evaluated in order to determine a relative comparison of the effectiveness of such compounds on human blood. Each of the compounds were evaluated in the comparison against the standard control (human blood) and the negative control heparin, which is an anti-coagulant. […] Lee and White Coagulation Assay in Human Blood [table]"}}}
{"compound": "NC(=O)c1cccnc1.O=C1O[C@H]([C@@H](O)CO)C(O)=C1O", "note": "[NA, Niacinamide ascorbate]", "values": [{"measurement": "improvement in re-epithelialization over the gauze control", "setting": "[1]; day 5", "result": "> 50", "unit": "%"}, {"measurement": "re-epithelialization compared with the Comfeel control", "setting": "[1]; over 15 days", "result": "larger growth rates (re-epithelialization rates)"}, {"measurement": "re-epithelialization compared with the gauze control", "setting": "[1]; over 15 days", "result": "larger numbers for re-epithelialization than the control"}]}
{"compound": "Heparin", "values": [{"measurement": "BLOOD CLOTTING TIME (MIN)", "setting": "human blood", "result": "NC (NC = No Clot for 60 min)"}]}
